Measurements from patent US20190275088A1, “PRESERVATIVE SOLUTION FOR LIVE CELLS OR COMPOSITION CONTAINING LIVE CELLS” (TERUMO KABUSHIKI KAISHA, priority 2016, published 2019).

What was measured:
[1] = tested on: sheet-shaped human skeletal myoblast cell culture; experiment: Cell survival rate confirmation test, preservative solution based on Hanks' balanced salt solution HBSS (+) (PI staining, flow cytometry); details: 2° C. to 8° C.
Description: (§1) The sheet-shaped cell cultures were prepared using skeletal myoblast cells (with fibroblast cells contained therein) prepared from a human skeletal muscle by a usual or known method. A cell mixture of human skeletal myoblast cells and human fibroblast cells suspended in a 20% human serum-containing DMEM/F12 medium (Thermo Fisher Scientific Inc.) was seeded at 3.7×10^6 cells/well on a temperature-responsive culture dish (UpCell® 12 well Multi-well, CellSeed Inc.), and was then subjected to the sheet-formation cultivation at 37° C. under 5% CO2 for 12 to 26 hours. After the sheet-formation cultivation, the medium was removed, 700 μL of HBSS (+) (Thermo Fisher Scientific Inc.) which was chilled to 4° C. was added, and then the resultant was left to stand for 10 minutes. Then, gentle pipetting was conducted such as to detach the sheet-shaped cell culture completely. The thus detached sheet-shaped cell culture naturally shrank.
After the sheet-shaped cell culture was completely detached, HBSS (+) was removed, and a fresh supply of room-temperature HBSS (+) was added to conduct rinsing. […]
The sheet-shaped cell culture left to stand under the refrigerated conditions in (1) above was put to measurement of cell survival rate. […] The analysis was conducted using a flow cytometer (Becton Dickinson), and the proportion of PI-unstained cells contained in the whole cells admixed with PI was measured. […]

[2] = tested on: sheet-shaped human skeletal myoblast cell culture; experiment: Cell survival rate confirmation test, preservative solution based on physiological saline solution (PI staining, flow cytometry); details: 2° C. to 8° C.; for cell survival rate: three days
Description: as §1, with “completely.” for “completely. The thus detached sheet-shaped cell culture naturally shrank.”
After the sheet-shaped cell culture was completely detached, HBSS (+) was removed, and a fresh supply of room-temperature HBSS (+) was added to conduct rinsing. Such a washing step was repeated four times.
The sheet-shaped cell culture left to stand under the refrigerated conditions in (1) above was put to measurement of cell survival rate. After the sheet-shaped cell culture left to stand in the preservative solution for a predetermined period was dissociated with a trypsin-like protease, the cells were dispensed into a FACS tube to be 3.5×10^5 cells, followed by centrifugation, and the supernatant was discarded. To the resultant was added 3 ml of 0.5% BAS-containing PBS solution, and, after rinsing the cells by vortex, centrifugation was conducted, the supernatant was removed, and 500 μL of a propidium iodide (PI, Becton Dickinson) prepared to a final concentration of 0.6 μg/mL by use of a 0.5% BSA-containing PBS solution was added and mixed. […] The analysis was conducted using a flow cytometer (Becton Dickinson), and the proportion of PI-unstained cells contained in the whole cells admixed with PI was measured. […]

| Compound | cell survival rate as compared to HBSS (+) not admixed with edaravone ([1]; 100 μM edaravone in HBSS (+), three days to seven days) | lowering in the number of live cells from three days to seven days of preservation, compared to edaravone-nonadded HBSS (+) ([1]; HBSS (+)-based edaravone-added preservative solution (100 μM)) | cell survival rate as compared to the case of no addition of edaravone ([2]; 1 μM or 10 μM edaravone in physiological saline solution, five days) | cell survival rate ([2]; 10 μM vitamin E in physiological saline solution) | cell survival rate ([2]; 100 μM vitamin E in physiological saline solution) |
| --- | --- | --- | --- | --- | --- |
| CC1=NN(c2ccccc2)C(=O)C1 [edaravone, 3-methyl-1-phenyl-2-pyrazolin-5-one] | higher cell survival rate | restrained | increased |  |  |
| tocopherol [vitamin E] |  |  |  | approximately 65% | approximately 65% |
